The record followed here is patent US20230390279A1, “COMPOSITION AND METHOD FOR TREATING CANCER” (NOVMETAPHARMA CO., LTD., priority 2022, published 2023).

The structures appear in SMILES notation.

The inhibition is the relative decrease from the control value, in per cent.

What all share (assay type): cell-based
Experiment [1] relates to sorafenib-resistant liver cancer cell line Huh7-SR. As to the kind of experiment: Cell death by FACS (annexin/PI) and cleaved caspase-3. The following applies: Huh7-SR cells; FIGS. 1A to 1C. The procedure:
(§1) To evaluate the cancer cell death by FACS, first, a cancer cell line was incubated in FITC-bound annexin and propidium iodide (PI) for 15 minutes, and annexin and PI binding were then measured by flow cytometry to acquire data using a BD Accuri C6 flow cytometer (BD Biosciences) and analyzed with the ACCURI™ C6 analysis program (BD Biosciences)/FlowJo software (FlowJo, LLC.). Cancer cell line death was evaluated using a cleaved caspase-3 antibody (Cell Signaling Technology).
A general note: In flow cytometry, cells or beads pass a laser one at a time.

For experiment [2], the system named is sorafenib-resistant liver cancer cell line SK-Hep-R. The description is as above. To be noted: SK-Hep-R cells; FIGS. 1A to 1C. The procedure:
as §1

In experiment [3] the test system is sorafenib-resistant liver cancer cell line Huh7-R. As to the kind of experiment: Cell proliferation, trypan blue cell count with hemocytometer. To be noted: sorafenib alone, FIG. 4A.
Experiment [4] deals with sorafenib-resistant liver cancer cell line SK-Hep-R. Described as above. To be noted: sorafenib alone, FIG. 4B.
Experiment [5] deals with Huh-7 liver cancer cells. As to the kind of experiment: MTT cell viability assay, TKI combination. The following applies: Homo sapiens, lenvatinib 1.3 μM, 24 hours, read-out: growth inhibition. The procedure: (§2) To evaluate anticancer effects of ERRγ compound, alone and in combination with TKIs, various cancer cells including A549, Panc-1, Sk-Hep-1, Huh-7, and SK-Hep-1 cells were cultured in DMEM containing 10% FBS and 1% antibiotics.
(§3) To initiate the assay, cells were seeded in 96-well plates at a density of 1×10^4 cells per well and incubated overnight in a 37° C. […] To serve as a control, an equal volume of DMSO was added. After 24 hours of incubation, the media was replaced with media containing 0.5 mg/ml of MTT and the plates were incubated for 1 hour. Then, the medium was removed and formazan crystals were dissolved in 100 μl of DMSO added to each well. A microplate reader was used to measure the absorbance at 570 nm, and cell viability was normalized to control. Statistical significance was calculated using Student's t-test, with significance levels set at **p<0.01, ***p<0.001, and ****p<0.0001.
In general terms: Tetrazolium assays rely on reduction of a dye to a coloured formazan, in cell work by metabolically active cells.

Experiment [6] relates to SK-Hep-1 liver cancer cells. In words: MTT cell viability assay, TKI combination. The following applies: Homo sapiens, SK-HEP1, lenvatinib 15 μM, 24 hours, read-out: growth inhibition. The procedure:
as §2, §3

In experiment [7] the test system is SKOV-3 ovarian cancer cells. In words: MTT cell viability assay, TKI combination. To be noted: Homo sapiens, SK-OV-3, ruxolitinib 30 μM, 24 hours, read-out: growth inhibition.
Experiment [8] relates to Panc1 pancreatic cancer cells. In words: MTT cell viability assay, TKI combination. The following applies: Homo sapiens, PANC-1, ceritinib 2.5 μM, 24 hours, read-out: growth inhibition. The method, then: as §2, §3
The test system of experiment [9] is A549 lung cancer cell line. In words: MTT cell viability assay, TKI combination. To be noted: Homo sapiens, bosutinib 12.5 μM, 24 hours, read-out: growth inhibition. The method, then:
as §2, §3

For `CNC(=O)c1cc(Oc2ccc(NC(=O)Nc3ccc(Cl)c(C(F)(F)F)c3)cc2)ccn1` [sorafenib], the “cell death by sorafenib” value in [1] and in experiment [2] was “did not increase” in each case. Also, the cell proliferation result in experiment [3] and in [4] was “not affected” throughout.

Take `COc1cc2nccc(Oc3ccc(NC(=O)NC4CC4)c(Cl)c3)c2cc1C(N)=O` [lenvatinib]: the inhibition at 1.3 µM in experiment [5] was 16.7%. Moreover, in experiment [6], the inhibition at 15 µM came out at 16.7%.

In the case of `N#CC[C@H](C1CCCC1)n1cc(-c2ncnc3[nH]ccc23)cn1` [ruxolitinib], the inhibition at 30 µM in [7] was found to be 8.8%.

For the compound `Cc1cc(Nc2ncc(Cl)c(Nc3ccccc3S(=O)(=O)C(C)C)n2)c(OC(C)C)cc1C1CCNCC1` [ceritinib], the inhibition at 2.5 µM in experiment [8] was determined as 17%.

In the case of `COc1cc(Nc2c(C#N)cnc3cc(OCCCN4CCN(C)CC4)c(OC)cc23)c(Cl)cc1Cl` [bosutinib], in [9], the inhibition at 12.5 µM stood at 16.3%.
